Results from ChEMBL document CHEMBL4732222, “Discovery of novel Hsp90 C-terminal domain inhibitors that disrupt co-chaperone binding” (Bioorg Med Chem Lett, 2021).

Assays:
Heat shock protein HSP90 [1] = target: T1, Heat shock protein HSP90 (Homo sapiens, UniProt P07900+P08238); experiment: Binding affinity to recombinant human N-terminal GST-tagged HSP90-CTD assessed as induction of fluorescence quenching at 1 mM by fluorescence spectroscopic analysis relative to control; assay type: protein assay
Homo sapiens = organism: Homo sapiens; experiment: Inhibition of recombinant biotin-labelled HSP90/GST-labelled PPID interaction (unknown origin) at 500 uM by Alphascreen assay relative to control
[2] = Inhibition of recombinant biotin-labelled HSP90/GST-labelled PPID interaction (unknown origin) by Alphascreen assay; parameters: species or system Homo sapiens
[3] = Binding affinity to GST (unknown origin) by fluorescence spectroscopic analysis; assay type: ADME, Homo sapiens
Heat shock protein HSP90 [4] = target: T1, Heat shock protein HSP90; experiment: Binding affinity to recombinant human N-terminal GST-tagged HSP90-CTD by fluorescence spectroscopic analysis; assay type: protein assay

Row | Structure (SMILES) | Activity (Heat shock protein HSP90 [1]) [%] | inhibition (Homo sapiens) [%] | further results
1 | CC(C)CCn1c(NCCO)nc2c1c(=O)[nH]c(=O)n2C | > 30 | – | –
2 | O=C(O)C1Cc2c([nH]c3ccccc23)C(c2c(O)ccc3ccccc23)N1 (centres undefined) | – | > 60 | –
3 | COc1ccc2[nH]c3c(c2c1)CCNC3c1cccc(O)c1 (centres undefined) | – | > 60 | –
4 | COc1ccc(C(=O)Nc2ccccc2C(=O)N[C@H](C(=O)O)C(C)C)cc1 | > 30 | – | –
5 | Cc1nc(CC(=O)c2ccc(O)c(O)c2O)cs1 | > 30 | > 60 | IC50 [2]: 35 µM; Kd [3]: 310 µM; Kd (Heat shock protein HSP90 [4]): 102 µM
6 | CCCCC(NC/C(=C(/C)O)c1cc2c(c(=O)o1)CCCC2)C(=O)O (centres undefined) | – | > 60 | –
7 | COc1ccc(C(=O)Nc2ccccc2C(=O)NCCC(=O)O)cc1 | > 30 | – | –
8 | CCOC(=O)c1cnc2ccc(OC)cc2c1Nc1ccccc1C(=O)O | > 30 | – | –
9 | NC(Cc1c[nH]c2ccc(OCc3ccccc3)cc12)C(=O)O (centres undefined) | > 30 | > 60 | IC50 [2]: 220 µM; Kd [3]: 83 µM; Kd (Heat shock protein HSP90 [4]): 28 µM
10 | Cc1cc2oc(=O)cc(C)c2cc1NC(=O)CCCCl | – | > 60 | –
11 | Cc1cc(O)c2c(=O)c(-c3csc(C)n3)coc2c1 | – | > 60 | –
